{"source": "paper PMC10343299", "about": "“S-Ethyl-Isothiocitrullin-Based Dipeptides and 1,2,4-Oxadiazole Pseudo-Dipeptides: Solid Phase Synthesis and Evaluation as NO Synthase Inhibitors” (Molecules, 2023)", "key": {"bovine eNOS": {"target": "T1, bovine eNOS (Bos taurus, UniProt P29473)", "T1 construct": "Full-length recombinant rat nNOS, mouse iNOS, bovine eNOS; made in house; host or cells: Escherichia coli", "T1 sequence (P29473 whole entry)": "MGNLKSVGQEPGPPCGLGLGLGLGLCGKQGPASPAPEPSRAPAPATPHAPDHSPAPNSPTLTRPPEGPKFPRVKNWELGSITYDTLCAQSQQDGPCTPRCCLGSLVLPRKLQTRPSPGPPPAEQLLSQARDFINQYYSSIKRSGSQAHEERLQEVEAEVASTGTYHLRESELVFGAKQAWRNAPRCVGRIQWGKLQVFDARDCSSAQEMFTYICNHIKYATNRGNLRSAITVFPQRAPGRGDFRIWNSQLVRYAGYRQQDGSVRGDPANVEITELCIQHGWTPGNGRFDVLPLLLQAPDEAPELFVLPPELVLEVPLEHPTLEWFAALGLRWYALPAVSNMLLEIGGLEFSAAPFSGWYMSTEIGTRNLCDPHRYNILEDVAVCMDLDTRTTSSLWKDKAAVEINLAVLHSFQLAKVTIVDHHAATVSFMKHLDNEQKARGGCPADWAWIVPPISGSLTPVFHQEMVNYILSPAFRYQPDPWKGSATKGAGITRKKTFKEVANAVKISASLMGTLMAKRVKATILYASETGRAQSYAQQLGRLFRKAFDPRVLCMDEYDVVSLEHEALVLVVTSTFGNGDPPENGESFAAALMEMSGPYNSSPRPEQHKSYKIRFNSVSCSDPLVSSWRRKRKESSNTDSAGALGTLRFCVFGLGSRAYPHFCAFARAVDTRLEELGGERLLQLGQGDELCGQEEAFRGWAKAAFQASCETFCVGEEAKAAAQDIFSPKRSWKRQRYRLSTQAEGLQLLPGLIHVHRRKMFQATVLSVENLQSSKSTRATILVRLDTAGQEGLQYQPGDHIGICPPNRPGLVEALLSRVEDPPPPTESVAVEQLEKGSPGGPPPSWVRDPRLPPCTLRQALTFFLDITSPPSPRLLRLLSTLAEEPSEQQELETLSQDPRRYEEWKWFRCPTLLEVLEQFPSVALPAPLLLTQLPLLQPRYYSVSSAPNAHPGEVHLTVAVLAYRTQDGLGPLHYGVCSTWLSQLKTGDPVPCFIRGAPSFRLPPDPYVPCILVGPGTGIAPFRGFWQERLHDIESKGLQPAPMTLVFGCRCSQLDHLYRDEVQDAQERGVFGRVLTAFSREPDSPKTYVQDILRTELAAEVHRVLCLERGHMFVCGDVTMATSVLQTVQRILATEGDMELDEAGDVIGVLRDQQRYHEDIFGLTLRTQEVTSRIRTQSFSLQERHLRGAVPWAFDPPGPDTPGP", "experiment": "NOS inhibition, oxyhemoglobin (hemoglobin capture) test, recombinant eNOS", "type": "biochemical", "conditions": "recombinant enzyme, 10 µM arginine, triplicate, NI = <50% inhibition at 100 μM, read-out: IC50 (μM) eNOS (Bovine)"}, "iNOS in RAW 264.7 cells": {"target": "T2, iNOS in RAW 264.7 cells (Mus musculus, UniProt P29477)", "T2 construct": "In RAW 264.7 cells, iNOS was induced by LPS (1 µg/mL, Sigma-Aldrich) for 24 h; endogenous in cells; host or cells: RAW 264.7 murine macrophages, LPS-induced", "experiment": "Inhibition of NO production (nitrite, Griess) in LPS-stimulated cells", "type": "cell-based, murine", "conditions": "RAW264.7; RAW 264.7, LPS 1 µg/mL, 100 μM compound; read-out: Inhibition of intracellular NO production", "procedure": "We evaluated the ability of selected compounds (dipeptides 7, 8, and 21 and 1,2,4-oxadiazoles 30 and 40) to inhibit iNOS in RAW 264.7 cells (Figure 2), where iNOS was induced by LPS (1 µg/mL). iNOS activity was measured following LPS induction by quantifying nitrite accumulation in the supernatant. […] A similar result was previously reported.\nIn RAW 264.7 cells, iNOS was induced by LPS (1 µg/mL, Sigma-Aldrich) for 24 h. All studied compounds were incubated with cells during the last 24 h.\n(§1) Cellular NO production was measured using the Griess reagent (Sigma-Aldrich), which evaluates the nitrite content in culture media. Cellular toxicity was estimated by the MTT assay (Sigma-Aldrich) in RAW 264.7 cells after the induction (or not) of iNOS by LPS, according to the manufacturer’s recommendations."}, "rat nNOS": {"target": "T3, rat nNOS (Rattus norvegicus, UniProt P29476)", "T3 construct": "Full-length recombinant rat nNOS, mouse iNOS, bovine eNOS; made in house; host or cells: Escherichia coli", "T3 sequence (P29476 whole entry)": "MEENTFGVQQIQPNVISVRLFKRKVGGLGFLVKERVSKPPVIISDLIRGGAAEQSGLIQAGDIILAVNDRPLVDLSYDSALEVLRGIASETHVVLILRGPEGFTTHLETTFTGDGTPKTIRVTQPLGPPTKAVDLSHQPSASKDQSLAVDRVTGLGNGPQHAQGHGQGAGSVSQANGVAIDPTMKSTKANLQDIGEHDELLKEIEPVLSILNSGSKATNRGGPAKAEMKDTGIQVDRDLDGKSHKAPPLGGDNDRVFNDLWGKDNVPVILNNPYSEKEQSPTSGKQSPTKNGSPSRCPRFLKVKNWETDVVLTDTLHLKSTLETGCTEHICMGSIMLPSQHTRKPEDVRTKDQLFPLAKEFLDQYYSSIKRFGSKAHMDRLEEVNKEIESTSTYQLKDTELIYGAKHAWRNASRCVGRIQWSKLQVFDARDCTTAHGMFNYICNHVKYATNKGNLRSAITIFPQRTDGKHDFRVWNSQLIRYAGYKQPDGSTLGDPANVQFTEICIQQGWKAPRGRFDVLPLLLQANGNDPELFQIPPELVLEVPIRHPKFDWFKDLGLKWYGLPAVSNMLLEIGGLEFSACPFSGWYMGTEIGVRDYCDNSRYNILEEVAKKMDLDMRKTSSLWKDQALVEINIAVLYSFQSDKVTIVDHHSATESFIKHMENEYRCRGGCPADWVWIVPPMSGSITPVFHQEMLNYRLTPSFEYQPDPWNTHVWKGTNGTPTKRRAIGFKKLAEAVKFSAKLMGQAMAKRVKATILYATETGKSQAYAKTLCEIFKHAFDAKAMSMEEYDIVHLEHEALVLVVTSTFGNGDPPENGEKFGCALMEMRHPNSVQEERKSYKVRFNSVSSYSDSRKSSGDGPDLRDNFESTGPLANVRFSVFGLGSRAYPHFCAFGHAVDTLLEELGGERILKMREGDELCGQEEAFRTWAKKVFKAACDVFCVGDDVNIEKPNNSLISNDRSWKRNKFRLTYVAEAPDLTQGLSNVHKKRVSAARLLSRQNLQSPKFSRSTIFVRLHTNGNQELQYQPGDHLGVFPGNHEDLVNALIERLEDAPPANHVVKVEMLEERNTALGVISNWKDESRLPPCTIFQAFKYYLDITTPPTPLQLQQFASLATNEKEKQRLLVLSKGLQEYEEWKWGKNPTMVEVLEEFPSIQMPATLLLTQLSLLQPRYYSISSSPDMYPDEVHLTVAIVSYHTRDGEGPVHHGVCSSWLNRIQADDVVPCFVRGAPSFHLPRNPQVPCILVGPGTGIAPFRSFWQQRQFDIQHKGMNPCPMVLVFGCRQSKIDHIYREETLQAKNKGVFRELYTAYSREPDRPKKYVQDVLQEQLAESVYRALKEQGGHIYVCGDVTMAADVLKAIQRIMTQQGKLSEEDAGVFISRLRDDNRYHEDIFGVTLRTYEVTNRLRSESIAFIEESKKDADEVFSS", "experiment": "NOS inhibition, oxyhemoglobin (hemoglobin capture) test, recombinant nNOS", "type": "biochemical", "conditions": "recombinant enzyme, 10 µM arginine, triplicate, NI = <50% inhibition at 100 μM", "procedure": "(§2) The inhibitory effects of all compounds against the three recombinant NOSs (rat nNOS, mouse iNOS, and bovine eNOS) were evaluated in 96-well plates using the oxyhemoglobin test. A first screening at 100 and 10 μM was performed, and the IC50 values were measured for compounds showing more than 50% inhibition at 100 μM (Table 1 and Table 2).\n(§3) Full-length recombinant rat nNOS, mouse iNOS, bovine eNOS, and the heme domains of rat brain nNOS and mouse iNOS were expressed in Escherichia coli and purified as described previously.\n(§4) NOS catalytic activity was measured using the hemoglobin capture assay. The test was performed at 30 °C in 96-well microplates using a final volume of 200 µL. The assay mixture contained 100 µM NADPH, 10 µM BH4, 6 µM HbO2, 100 µM DTT, 5 µM FAD, 5 µM FMN, 10 µM (nNOS and eNOS), or 20 µM (iNOS) arginine, all in a 100 mM Hepes buffer, pH 7.5, and, for constitutive n- and e-NOS, 10 µg/mL calmodulin, and 1 mM CaCl2. The studied compounds were introduced as 2 μL of ×100 concentrated solutions in DMSO, and the control experiments were performed with DMSO or the buffer only. The kinetics of NO production were measured at 401 nm using an Infinite F500 microplate reader (Tecan, Singapore)."}, "mouse iNOS [1]": {"target": "T4, mouse iNOS (Mus musculus, UniProt P29477)", "T4 construct": "Full-length recombinant rat nNOS, mouse iNOS, bovine eNOS; made in house; host or cells: Escherichia coli", "T4 sequence (P29477 1-1144)": "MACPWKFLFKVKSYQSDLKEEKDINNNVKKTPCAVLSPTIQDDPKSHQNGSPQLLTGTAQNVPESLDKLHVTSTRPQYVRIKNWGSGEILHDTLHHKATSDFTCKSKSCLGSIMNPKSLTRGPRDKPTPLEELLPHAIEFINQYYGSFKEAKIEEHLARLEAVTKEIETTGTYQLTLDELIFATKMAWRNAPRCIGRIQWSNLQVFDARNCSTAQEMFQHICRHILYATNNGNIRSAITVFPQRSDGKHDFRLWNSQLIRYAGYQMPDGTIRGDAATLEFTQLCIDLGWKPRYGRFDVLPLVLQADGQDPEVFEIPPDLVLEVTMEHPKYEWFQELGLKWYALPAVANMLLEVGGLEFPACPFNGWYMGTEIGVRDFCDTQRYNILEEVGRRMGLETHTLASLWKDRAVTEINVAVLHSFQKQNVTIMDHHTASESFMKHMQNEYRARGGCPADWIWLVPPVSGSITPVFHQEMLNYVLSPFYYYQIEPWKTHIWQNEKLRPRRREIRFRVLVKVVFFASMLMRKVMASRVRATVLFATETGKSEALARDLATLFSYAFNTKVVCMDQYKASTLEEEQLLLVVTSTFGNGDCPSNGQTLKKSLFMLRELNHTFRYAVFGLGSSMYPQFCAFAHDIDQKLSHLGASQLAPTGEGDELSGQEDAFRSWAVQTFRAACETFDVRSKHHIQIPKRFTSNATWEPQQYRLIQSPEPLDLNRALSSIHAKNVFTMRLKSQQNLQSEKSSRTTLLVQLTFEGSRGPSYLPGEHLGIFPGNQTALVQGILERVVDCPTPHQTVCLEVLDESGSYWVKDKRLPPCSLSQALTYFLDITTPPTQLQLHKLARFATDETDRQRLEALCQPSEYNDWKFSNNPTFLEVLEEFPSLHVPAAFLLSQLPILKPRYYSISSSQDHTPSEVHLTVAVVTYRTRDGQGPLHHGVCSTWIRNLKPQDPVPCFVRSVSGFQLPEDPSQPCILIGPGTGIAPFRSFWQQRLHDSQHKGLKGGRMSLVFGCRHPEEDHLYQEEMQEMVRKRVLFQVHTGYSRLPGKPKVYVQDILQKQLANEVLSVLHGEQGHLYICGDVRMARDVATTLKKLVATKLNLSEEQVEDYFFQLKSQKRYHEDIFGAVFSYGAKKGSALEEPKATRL", "experiment": "NOS inhibition, oxyhemoglobin (hemoglobin capture) test, recombinant iNOS", "type": "biochemical", "conditions": "recombinant enzyme, 20 µM arginine, triplicate, NI = <50% inhibition at 100 μM", "procedure": "as §2, §3, §4"}, "RAW 264.7 cells [2]": {"system": "RAW 264.7 cells", "experiment": "Cell viability, MTT assay", "type": "cell-based, murine", "procedure": "Cell viability was evaluated in the murine macrophage RAW 264.7 cells using an MTT assay for compounds 18, 21, 26, and 30. This experiment was performed without or with LPS (1 µg/mL), which induces iNOS expression (Figure S1). […] Compound 30 only killed 20% of the cells at 500 μM (Figure S1A). In the presence of LPS (1 µg/mL), cell viability was reduced by 30% due to the inhibition by NO of key enzymes involved in cell metabolism (Figure S1B).\nThe macrophage cell line RAW 264.7 (a gift from Dr. A. Blangy, Montpellier, France) was cultured in Dulbecco’s Modified Eagle’s Medium (DMEM) supplemented with 10% FCS, 100 units/mL penicillin, 100 µg/mL streptomycin, and 2 mM L-glutamine.\nas §1"}, "mouse iNOS [3]": {"system": "mouse iNOS", "experiment": "NOS inhibition, oxyhemoglobin (hemoglobin capture) test, recombinant iNOS", "type": "biochemical", "conditions": "from IC50 values", "procedure": "as §2, §3, §4"}, "nNOS": {"system": "nNOS", "parameters": "method as in PMID 14718923", "conditions": "cited from earlier work"}, "eNOS": {"target": "eNOS", "parameters": "method as in PMID 14718923", "conditions": "read-out: Experimental Ki eNOS; cited from earlier work"}, "RAW 264.7 cells [4]": {"system": "RAW 264.7 cells", "parameters": "method as in PMID 32027778", "conditions": "RAW 264.7, LPS; cited from earlier work"}, "[5]": {"target": "T5, oxygenase domain of nNOS (nNOSoxy) (Rattus norvegicus, UniProt P29476)", "T5 construct": "the oxygenase domain of nNOS (nNOSoxy) and iNOS (iNOSoxy); made in house; host or cells: Escherichia coli", "T5 sequence (P29476 1-720 limits assumed)": "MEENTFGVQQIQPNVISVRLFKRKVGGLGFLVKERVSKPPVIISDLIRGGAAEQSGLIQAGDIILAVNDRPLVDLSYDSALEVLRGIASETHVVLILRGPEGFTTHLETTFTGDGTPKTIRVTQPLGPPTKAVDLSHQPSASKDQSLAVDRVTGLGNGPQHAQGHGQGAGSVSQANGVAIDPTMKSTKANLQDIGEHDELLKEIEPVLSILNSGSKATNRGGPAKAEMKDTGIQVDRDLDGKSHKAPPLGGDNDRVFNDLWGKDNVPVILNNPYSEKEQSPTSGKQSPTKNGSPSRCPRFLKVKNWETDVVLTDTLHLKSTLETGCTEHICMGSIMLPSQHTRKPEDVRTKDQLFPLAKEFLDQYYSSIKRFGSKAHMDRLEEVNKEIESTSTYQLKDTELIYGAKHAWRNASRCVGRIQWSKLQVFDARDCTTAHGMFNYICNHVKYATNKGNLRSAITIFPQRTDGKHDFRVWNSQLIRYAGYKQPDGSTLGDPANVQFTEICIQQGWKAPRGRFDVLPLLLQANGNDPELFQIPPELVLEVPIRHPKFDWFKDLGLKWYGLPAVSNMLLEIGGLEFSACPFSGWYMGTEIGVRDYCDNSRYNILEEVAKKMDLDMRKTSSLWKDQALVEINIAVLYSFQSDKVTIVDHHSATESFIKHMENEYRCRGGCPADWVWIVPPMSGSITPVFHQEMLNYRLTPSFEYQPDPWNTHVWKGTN", "experiment": "UV-visible difference spectroscopy titration of nNOSoxy", "type": "binding", "conditions": "UV/Vis difference spectroscopy, ± SD, three experiments; read-out: Apparent equilibrium constant Ks nNOSoxy", "excerpt": "(§5) We performed UV–visible difference spectroscopy to analyze the interaction mode of some inhibitors with the heme-active site of NOS [54]. We have studied the effects of dipeptide-like compounds 7, 17, 19, 23, and 27 and 1,2,4-oxadiazole 35 on the UV–visible spectra of the oxygenase domain of nNOS (nNOSoxy) and iNOS (iNOSoxy). As expected, when added stepwise to n- and iNOSoxy, all selected compounds elicited different spectra with a trough at ~425 nm and a peak at ~395 nm, similar to the substrate L-arginine. This profile is characteristic of type I interactions, meaning that they are bound in close proximity to the heme prosthetic group and shifted the spin state equilibrium to the pentacoordinated heme–Fe^III state. Double reverse plotting of the differences in absorbance between the peak at ~395 nm and valley at ~425 nm (ΔA395–425 nm) as a function of the concentration of the added compounds allowed calculating apparent binding constants (Ks) (Table 3). The reference inhibitor SEITU [55] tightly bound both NOS isoforms with high affinity but no selectivity. With the exception of the dipeptide-like 27 and the heterocyclic analog 35, which similarly interacted with both proteins, other compounds preferentially bound nNOSoxy over iNOSoxy with apparent affinities close to SEITU for this isoform.\nas §3\n(§6) This study was performed as previously described."}, "[6]": {"target": "T6, oxygenase domain of iNOS (iNOSoxy) (Mus musculus, UniProt P29477)", "T6 construct": "the oxygenase domain of nNOS (nNOSoxy) and iNOS (iNOSoxy); made in house; host or cells: Escherichia coli", "T6 sequence (P29477 1-498 limits assumed)": "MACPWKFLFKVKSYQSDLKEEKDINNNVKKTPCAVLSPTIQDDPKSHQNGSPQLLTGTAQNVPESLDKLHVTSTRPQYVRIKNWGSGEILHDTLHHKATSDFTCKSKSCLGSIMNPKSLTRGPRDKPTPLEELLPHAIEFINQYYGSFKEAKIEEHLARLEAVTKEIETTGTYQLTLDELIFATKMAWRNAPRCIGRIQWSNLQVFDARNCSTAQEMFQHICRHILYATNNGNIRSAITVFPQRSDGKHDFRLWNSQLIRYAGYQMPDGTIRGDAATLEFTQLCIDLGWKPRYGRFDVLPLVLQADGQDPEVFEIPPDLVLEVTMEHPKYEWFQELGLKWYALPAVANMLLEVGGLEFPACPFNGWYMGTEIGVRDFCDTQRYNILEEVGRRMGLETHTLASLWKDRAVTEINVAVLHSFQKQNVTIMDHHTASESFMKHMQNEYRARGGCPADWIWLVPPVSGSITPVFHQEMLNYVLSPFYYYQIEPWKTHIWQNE", "experiment": "UV-visible difference spectroscopy titration of iNOSoxy", "type": "binding", "conditions": "UV/Vis difference spectroscopy, ± SD, three experiments; read-out: Apparent equilibrium constant Ks iNOSoxy", "excerpt": "as §5, §3, §6"}}, "note": "Read-outs that look alike come from different tables or passages of the source.", "data": [{"smiles": "CCSC(=N)NCCC[C@H](N)C(=O)N[C@H]1CCCN(Cc2cccc(Br)c2)C1", "note": "[Compound 21]", "values": [{"measurement": "inhibition at 100 µM", "setting": "bovine eNOS; dipeptide-like series", "result": "< 50", "unit": "%"}, {"measurement": "inhibition at 100 µM", "setting": "iNOS in RAW 264.7 cells", "result": 80, "unit": "%"}, {"measurement": "IC50", "setting": "rat nNOS; dipeptide-like series", "result": 1, "unit": "µM"}, {"measurement": "IC50", "setting": "mouse iNOS [1]; dipeptide-like series", "result": 45.5, "unit": "µM"}, {"measurement": "Reversal of LPS-induced reduction of cell viability", "setting": "RAW 264.7 cells [2]; RAW 264.7, LPS 1 µg/mL", "result": "none partially reversed the LPS effect"}, {"measurement": "Effect on cell viability (MTT)", "setting": "RAW 264.7 cells [2]; RAW 264.7, absence of LPS, up to 100 μM", "result": "did not modify cell viability"}]}, {"smiles": "CCSC(=N)NCCC[C@H](N)c1nc(CCN(Cc2ccccc2[N+](=O)[O-])Cc2ccccc2[N+](=O)[O-])no1", "note": "[Compound 40]", "values": [{"measurement": "inhibition at 100 µM", "setting": "bovine eNOS; 1,2,4-oxadiazole series", "result": "< 50", "unit": "%"}, {"measurement": "IC50", "setting": "rat nNOS; 1,2,4-oxadiazole series", "result": 61, "unit": "µM"}, {"measurement": "Selectivity for iNOS toward eNOS", "setting": "mouse iNOS [3]", "result": "> 50", "unit": "fold"}, {"measurement": "Selectivity for iNOS toward nNOS", "setting": "mouse iNOS [3]", "result": 30, "unit": "fold"}, {"measurement": "IC50", "setting": "mouse iNOS [1]; 1,2,4-oxadiazole series", "result": 2, "unit": "µM"}]}, {"smiles": "N=C(NCCC[C@H](N)C(=O)N1C[C@H](N)C[C@H]1C(N)=O)N[N+](=O)[O-]", "note": "[DP9, L-Nω-nitroarginine-(4R)-amino-L-prolinamide]", "values": [{"measurement": "Selectivity in favor of nNOS over eNOS", "setting": "nNOS", "result": 1000, "unit": "fold"}, {"measurement": "Ki", "setting": "nNOS; read-out: Experimental Ki nNOS", "result": 100, "unit": "nM"}, {"measurement": "Ki", "setting": "eNOS", "result": 110, "unit": "µM"}]}, {"smiles": "CC(=N)NCCCC[C@H](N)C(=O)O", "note": "[L-NIL]", "values": [{"measurement": "Reversal of LPS-induced reduction of cell viability", "setting": "RAW 264.7 cells [4]", "result": "partially reversed the LPS effect"}]}, {"smiles": "CCSC(=N)N", "note": "[SEITU, reference compound]", "values": [{"measurement": "Reversal of LPS-induced reduction of cell viability", "setting": "RAW 264.7 cells [4]", "result": "partially reversed the LPS effect"}, {"measurement": "Kd", "setting": "[5]", "result": "6.4 ± 1.5", "unit": "µM"}, {"measurement": "Kd", "setting": "[6]", "result": "1700 ± 100", "unit": "nM"}]}]}
